Reference: ChEMBL document CHEMBL1201862, “PubChem BioAssay data set” (2004)
Active and inactive are the calls of the source.

Tests used:
[1] = target: T1, Rac GTPase-activating protein 1 (Homo sapiens, UniProt Q9H0H5); assay: MgcRacGAP GTPase-activating activity inhibitors, confirmation, biochemical, ADP Hunter fluorescence, primary and confirmatory (AID 624330); assay type: functional
T1 sequence (Q9H0H5 whole entry): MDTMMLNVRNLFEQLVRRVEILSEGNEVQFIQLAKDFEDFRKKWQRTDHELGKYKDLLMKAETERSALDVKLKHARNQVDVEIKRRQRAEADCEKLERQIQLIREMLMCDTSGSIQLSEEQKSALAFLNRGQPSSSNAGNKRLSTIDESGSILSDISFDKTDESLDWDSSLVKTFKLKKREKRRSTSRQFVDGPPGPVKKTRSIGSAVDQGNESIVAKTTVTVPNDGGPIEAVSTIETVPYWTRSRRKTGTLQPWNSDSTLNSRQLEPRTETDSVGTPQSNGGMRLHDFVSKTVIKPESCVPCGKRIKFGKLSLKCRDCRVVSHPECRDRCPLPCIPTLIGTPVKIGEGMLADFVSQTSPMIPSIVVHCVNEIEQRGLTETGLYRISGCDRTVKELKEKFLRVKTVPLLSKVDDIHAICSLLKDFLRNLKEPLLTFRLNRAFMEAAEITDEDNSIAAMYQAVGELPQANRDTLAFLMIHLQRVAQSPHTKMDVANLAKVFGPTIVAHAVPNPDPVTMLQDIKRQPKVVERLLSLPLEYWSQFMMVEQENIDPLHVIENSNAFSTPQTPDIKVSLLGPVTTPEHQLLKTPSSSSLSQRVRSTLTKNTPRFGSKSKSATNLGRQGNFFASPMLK

[2] = HeLa cell cytotoxicity, dose response, cytotoxicity control for MgcRacGAP inhibitor project (AID 624300); assay type: functional
[3] = target: T2, Short transient receptor potential channel 4 (Mus musculus, UniProt Q9QUQ5); assay: mouse TRPC4 channel activators, dose response, cell-based, HEK293 TRPC4/mu-opioid, Fluo-4 calcium (AID 434937); assay type: functional
T2 sequence (Q9QUQ5 whole entry): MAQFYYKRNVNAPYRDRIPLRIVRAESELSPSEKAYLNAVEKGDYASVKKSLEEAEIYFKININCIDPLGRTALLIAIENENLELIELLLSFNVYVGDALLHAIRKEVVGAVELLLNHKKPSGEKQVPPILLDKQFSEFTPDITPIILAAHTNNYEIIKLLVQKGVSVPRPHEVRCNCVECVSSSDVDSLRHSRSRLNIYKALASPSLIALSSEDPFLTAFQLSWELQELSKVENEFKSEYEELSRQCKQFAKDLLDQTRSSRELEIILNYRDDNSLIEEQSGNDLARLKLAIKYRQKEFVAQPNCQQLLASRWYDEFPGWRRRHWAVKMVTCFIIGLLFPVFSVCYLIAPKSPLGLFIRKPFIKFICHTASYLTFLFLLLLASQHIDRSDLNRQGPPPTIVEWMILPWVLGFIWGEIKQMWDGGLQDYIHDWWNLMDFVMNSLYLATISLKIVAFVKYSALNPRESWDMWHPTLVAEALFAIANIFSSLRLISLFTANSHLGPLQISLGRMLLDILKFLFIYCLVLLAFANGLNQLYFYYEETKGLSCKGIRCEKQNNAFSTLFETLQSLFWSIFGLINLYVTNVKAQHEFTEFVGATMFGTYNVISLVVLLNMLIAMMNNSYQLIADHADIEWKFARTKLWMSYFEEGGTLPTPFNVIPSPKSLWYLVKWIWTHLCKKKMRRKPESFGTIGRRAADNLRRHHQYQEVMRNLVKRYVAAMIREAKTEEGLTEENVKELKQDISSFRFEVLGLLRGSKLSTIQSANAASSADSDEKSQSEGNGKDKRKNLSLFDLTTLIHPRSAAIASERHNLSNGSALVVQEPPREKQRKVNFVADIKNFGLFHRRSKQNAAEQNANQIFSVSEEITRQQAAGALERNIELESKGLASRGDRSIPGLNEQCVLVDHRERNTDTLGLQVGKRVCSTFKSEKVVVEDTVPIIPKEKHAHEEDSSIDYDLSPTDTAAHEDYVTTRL

[4] = microbe, parasite or virus in culture; assay type: functional; settings: Mycobacterium tuberculosis
[5] = target: T3, High affinity choline transporter 1 (Homo sapiens, UniProt Q9GZV3); assay: CHT inhibitors, dose response, cell-based, 5-point CRC, membrane potential dye (AID 504840); assay type: functional
T3 sequence (Q9GZV3 whole entry): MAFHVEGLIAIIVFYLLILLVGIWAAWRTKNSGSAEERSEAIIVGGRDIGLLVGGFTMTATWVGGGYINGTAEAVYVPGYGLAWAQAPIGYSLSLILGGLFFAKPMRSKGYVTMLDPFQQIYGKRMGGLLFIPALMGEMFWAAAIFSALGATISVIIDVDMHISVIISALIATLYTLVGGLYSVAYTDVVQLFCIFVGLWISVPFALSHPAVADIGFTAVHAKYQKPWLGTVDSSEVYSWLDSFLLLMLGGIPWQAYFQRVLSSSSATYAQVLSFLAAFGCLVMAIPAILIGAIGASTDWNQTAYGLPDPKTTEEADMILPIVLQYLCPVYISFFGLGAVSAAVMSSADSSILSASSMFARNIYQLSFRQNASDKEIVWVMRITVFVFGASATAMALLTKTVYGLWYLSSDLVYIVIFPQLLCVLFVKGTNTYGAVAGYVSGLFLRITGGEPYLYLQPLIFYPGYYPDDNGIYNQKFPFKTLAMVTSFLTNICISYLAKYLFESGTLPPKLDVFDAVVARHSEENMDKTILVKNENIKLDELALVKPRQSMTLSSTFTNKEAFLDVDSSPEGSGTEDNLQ

Vero = assay: cells; assay type: functional; settings: Chlorocebus sabaeus
[6] = human group III sPLA2 inhibitors, dose response, biochemical, QFRET, IC50 (AID 743457);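 also: green fluorescence rise as the enzyme cleaves BODIPY PC-A2 in liposomes; potency for inhibition of the enzyme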
Galanin receptor type 3 = target: T4, Galanin receptor type 3 (Homo sapiens, UniProt O60755); assay: Fluorescence-based cell-based primary high throughput dose response assay to identify antagonists of the Galanin Receptor 3 (GalR3).; assay type: functional
T4 sequence (O60755 whole entry): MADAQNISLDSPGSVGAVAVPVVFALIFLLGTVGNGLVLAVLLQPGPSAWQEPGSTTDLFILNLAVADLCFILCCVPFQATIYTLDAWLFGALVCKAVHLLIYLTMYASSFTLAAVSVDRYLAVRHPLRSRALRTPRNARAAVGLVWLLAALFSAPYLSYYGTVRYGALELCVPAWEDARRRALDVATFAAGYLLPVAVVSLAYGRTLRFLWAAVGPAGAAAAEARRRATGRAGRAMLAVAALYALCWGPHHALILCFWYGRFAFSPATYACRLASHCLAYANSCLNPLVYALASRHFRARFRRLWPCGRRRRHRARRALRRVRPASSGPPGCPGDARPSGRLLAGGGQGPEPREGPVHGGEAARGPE

cells [7] = assay type: functional, cell-based; settings: HEK-CNG
Beta-galactosidase = Beta-galactosidase (Escherichia coli, UniProt Q8VNN2); assay: Dose response counterscreen for EBI2 assay utilizing the enzyme, b-galactosidase.; assay type: functional
[8] = target: T5, Heat shock factor protein 1 (Mus musculus, UniProt P38532); assay: HSF1 potentiators in luciferase reporter cells, confirmation, cell-based, NIH3T3, luminescence, dose retest (AID 435004); assay type: functional;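 also: stress induced by proteasome inhibitor MG132 added 30 min after compound; luciferase reporter driven by HSF1 response element in NIH3T3 cells; actives raise luminescence as potentiators of the MG132 stress response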
T5 sequence (P38532 whole entry): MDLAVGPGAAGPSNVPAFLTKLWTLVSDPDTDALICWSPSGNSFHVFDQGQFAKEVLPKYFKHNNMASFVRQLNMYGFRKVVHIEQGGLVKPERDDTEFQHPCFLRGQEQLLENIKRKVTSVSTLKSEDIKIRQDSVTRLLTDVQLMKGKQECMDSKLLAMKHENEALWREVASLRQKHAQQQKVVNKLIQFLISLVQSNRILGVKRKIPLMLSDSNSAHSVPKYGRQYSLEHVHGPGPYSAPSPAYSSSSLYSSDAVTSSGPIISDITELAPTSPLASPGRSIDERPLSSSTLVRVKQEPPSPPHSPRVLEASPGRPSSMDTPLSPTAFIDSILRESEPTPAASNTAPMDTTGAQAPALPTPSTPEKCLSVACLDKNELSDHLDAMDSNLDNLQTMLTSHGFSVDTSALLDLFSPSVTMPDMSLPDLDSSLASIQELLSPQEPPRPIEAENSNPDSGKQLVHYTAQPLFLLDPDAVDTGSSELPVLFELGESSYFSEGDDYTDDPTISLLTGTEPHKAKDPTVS

[9] = THP-1 cell cytotoxicity, dose response, cytotoxicity control for Vif-APOBEC3G degradation inhibitor project, THP-1 cells (AID 1117359); assay type: functional; settings: Human immunodeficiency virus 1, THP-1
[10] = A549 cell cytotoxicity, dose response, cytotoxicity control, plate reader, cherry-pick, antagonist series (AID 743412); assay type: functional, cell-based
[11] = LGR2 antagonists, dose response, cell-based, HEK293, CRE-luciferase reporter, cherry pick, set 2 (AID 743343); assay type: functional;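 also: transfected cells were stimulated with diluted bursicon conditioned medium after compound addition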
[12] = target: T6, Nuclear receptor subfamily 0 group B member 1 (Homo sapiens, UniProt P51843); assay type: functional, cell-based;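 also: HEK293T cells transfected with SF-1 and DAX-1 plus StAR promoter luciferase reporter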
T6 sequence (P51843 whole entry): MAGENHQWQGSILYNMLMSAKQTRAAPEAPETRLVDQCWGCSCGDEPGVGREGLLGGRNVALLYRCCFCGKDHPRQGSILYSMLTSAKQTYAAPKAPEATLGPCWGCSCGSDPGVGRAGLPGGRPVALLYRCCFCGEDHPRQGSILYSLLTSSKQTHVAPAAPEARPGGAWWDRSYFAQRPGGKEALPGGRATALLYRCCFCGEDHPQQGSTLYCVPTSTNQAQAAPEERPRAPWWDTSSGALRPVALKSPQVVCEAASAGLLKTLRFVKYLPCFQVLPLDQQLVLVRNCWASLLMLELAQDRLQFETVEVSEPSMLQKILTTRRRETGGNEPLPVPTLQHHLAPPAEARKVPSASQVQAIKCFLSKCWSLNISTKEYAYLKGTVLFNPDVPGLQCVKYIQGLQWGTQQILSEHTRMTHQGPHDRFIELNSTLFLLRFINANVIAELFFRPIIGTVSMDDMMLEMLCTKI

[13] = HepG2 cell cytotoxicity, dose response, cytotoxicity control, plate reader, cherry-pick, antagonist series (AID 743416); assay type: functional, cell-based
cells [14] = assay type: functional, cell-based
[15] = MC4R antagonists, dose response, counter-screen for LGR2 antagonist project, cell-based, plate reader, cherry pick (AID 743444); assay type: functional;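 also: transfected HEK 293 cells stimulated with alpha-MSH peptide; potency of inhibitors of the alpha-MSH evoked signal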
[16] = Luminescence Cell-Based Dose Confirmation HTS to Identify Activators of 5'UTR Stem-Loop Driven Alpha-Synuclein mRNA Translation in H4 Neuroglioblastoma Cells. [Related pubchem assays: 1829 (Project Summary), 1814 (Primary HTS)]; assay type: functional
H4 = assay: Luminescence Cell-Based Dose Response HTS to Identify Activators of 5'UTR Stem-Loop Driven Prion Protein mRNA Translation in H4 Neuroglioblastoma Cells. [Related pubchem assays: 1829 (Project Summary), 1814 (Primary HTS)]; assay type: functional; settings: Homo sapiens
[17] = Luminescence Cell-Based Dose Response HTS to Identify Activators of Luciferase Translation or Activity in H4 […] Cells. [Related pubchem assays: 1829 (Project Summary), 1814 (Primary HTS)]; assay type: functional
Protein skinhead-1 = target: T7, Protein skinhead-1 (Caenorhabditis elegans, UniProt P34707); assay type: functional
T7 sequence (P34707 whole entry): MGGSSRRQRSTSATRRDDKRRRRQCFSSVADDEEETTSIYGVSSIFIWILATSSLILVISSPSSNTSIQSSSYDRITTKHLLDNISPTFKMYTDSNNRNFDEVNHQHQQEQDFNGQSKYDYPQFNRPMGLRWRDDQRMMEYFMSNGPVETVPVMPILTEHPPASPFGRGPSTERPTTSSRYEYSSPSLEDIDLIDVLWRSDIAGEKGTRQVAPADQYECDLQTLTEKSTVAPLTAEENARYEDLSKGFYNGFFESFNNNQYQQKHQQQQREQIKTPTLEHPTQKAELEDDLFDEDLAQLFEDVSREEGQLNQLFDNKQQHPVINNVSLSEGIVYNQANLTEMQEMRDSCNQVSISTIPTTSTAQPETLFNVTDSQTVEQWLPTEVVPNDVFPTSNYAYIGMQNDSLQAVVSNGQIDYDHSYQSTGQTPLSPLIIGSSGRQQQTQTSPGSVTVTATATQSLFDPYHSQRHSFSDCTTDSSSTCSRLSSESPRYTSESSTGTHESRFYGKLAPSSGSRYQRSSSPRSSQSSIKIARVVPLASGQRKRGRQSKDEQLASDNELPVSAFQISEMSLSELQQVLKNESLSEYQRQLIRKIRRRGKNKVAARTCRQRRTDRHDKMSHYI

[18] = target: Induced myeloid leukemia cell differentiation protein Mcl-1 (Homo sapiens, UniProt Q07820); assay type: functional
Chain of Induced myeloid leukemia cell differentiation protein Mcl-1 (Q07820 whole entry): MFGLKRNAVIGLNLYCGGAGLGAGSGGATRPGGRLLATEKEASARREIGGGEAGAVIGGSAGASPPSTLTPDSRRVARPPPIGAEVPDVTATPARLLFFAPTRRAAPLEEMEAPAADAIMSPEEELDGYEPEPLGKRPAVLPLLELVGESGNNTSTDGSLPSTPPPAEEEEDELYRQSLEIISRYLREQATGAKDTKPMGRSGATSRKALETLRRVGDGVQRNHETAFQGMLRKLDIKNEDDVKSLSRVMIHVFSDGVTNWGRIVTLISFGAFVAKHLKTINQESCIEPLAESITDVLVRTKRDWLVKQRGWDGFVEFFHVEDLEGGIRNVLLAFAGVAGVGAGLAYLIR

Chain of Beta-galactosidase (Q8VNN2 whole entry): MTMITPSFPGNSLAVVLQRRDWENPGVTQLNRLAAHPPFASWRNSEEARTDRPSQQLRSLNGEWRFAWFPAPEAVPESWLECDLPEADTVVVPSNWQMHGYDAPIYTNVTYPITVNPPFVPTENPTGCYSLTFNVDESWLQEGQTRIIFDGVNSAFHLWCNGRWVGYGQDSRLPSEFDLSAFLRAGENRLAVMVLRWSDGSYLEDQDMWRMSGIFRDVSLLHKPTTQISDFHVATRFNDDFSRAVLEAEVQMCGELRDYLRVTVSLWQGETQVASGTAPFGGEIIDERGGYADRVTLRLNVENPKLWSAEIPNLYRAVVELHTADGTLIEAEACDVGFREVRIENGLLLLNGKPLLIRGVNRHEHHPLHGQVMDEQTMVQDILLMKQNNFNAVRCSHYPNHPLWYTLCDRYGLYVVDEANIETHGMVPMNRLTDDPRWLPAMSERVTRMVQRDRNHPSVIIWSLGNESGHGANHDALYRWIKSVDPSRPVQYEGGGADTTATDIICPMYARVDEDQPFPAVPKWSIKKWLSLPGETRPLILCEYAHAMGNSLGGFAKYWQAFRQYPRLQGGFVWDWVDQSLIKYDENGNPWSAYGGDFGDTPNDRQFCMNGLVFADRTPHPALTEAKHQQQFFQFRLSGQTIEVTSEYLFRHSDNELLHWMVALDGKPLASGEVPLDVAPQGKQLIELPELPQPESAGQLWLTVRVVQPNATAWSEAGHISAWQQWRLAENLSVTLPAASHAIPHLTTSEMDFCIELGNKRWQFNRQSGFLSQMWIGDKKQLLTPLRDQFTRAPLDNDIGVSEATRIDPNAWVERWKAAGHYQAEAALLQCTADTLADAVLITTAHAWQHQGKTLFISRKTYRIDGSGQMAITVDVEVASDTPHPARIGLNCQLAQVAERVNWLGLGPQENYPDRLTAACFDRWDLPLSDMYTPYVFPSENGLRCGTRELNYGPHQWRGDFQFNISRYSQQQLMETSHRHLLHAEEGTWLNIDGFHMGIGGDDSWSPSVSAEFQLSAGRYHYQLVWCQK

C/C(=N\Nc1ccc(S(=O)(=O)N2CCCCC2)cn1)c1ccc(O)cc1
IC50 [1]: 23.4 µM (active) | CC50 [2]: 100 µM (active)

Cc1cccc(C(=O)NNC(=S)NC(=O)c2ccccc2)c1
EC50 [3]: 2.11 µM (active) | CC50 [4]: 24 µM (active) | IC50 [5]: 7.59 µM (active) | CC50 (Vero): > 25 µM (active) | IC50 [6]: > 122 µM (inactive)

CC(C)NC(=O)NC(=O)COC(=O)Cc1c(F)cccc1Cl
IC50 (Galanin receptor type 3): > 29.9 µM (inactive) | EC50 (cells [7]): > 29.9 µM (inactive)

O=C(/C=C/c1ccc(OCCCF)cc1)N1CCN(Cc2ccccc2)CC1
IC50 (Beta-galactosidase): > 80 µM (inactive)

C=CCc1cccc(CNc2nc3ccccc3n2CCN2CCOCC2)c1O
IC50 (Beta-galactosidase): > 80 µM (inactive)

S=C(N/N=C/c1cccs1)NC1CC2CCC1C2 (stereo not given)
EC50 [8]: > 260 µM (inactive) | CC50 [9]: > 40 µM (active) | IC50 [6]: > 122 µM (inactive)

COc1ccc(C(=O)Nc2nnc(SCC(=O)NCc3ccco3)s2)c(OC)c1
AC50 [10]: > 52 µM (inactive) | AC50 [11]: 6.14 µM (active) | IC50 [12]: > 67.5 µM (inactive) | AC50 [13]: > 52 µM (inactive) | IC50 (cells [14]): > 67.5 µM (inactive) | AC50 [15]: 4.64 µM (active)

O=C(c1cc(COc2ccc(F)cc2Cl)on1)N1C[C@H]2C[C@H]3C[C@@H](C2)C[C@H]1C3
EC50 [16]: 0.917 µM (active) | IC50 [12]: > 67.5 µM (inactive) | EC50 (H4): 47.6 µM (active) | EC50 [17]: 26.2 µM (active) | IC50 (cells [14]): > 67.5 µM (inactive) | IC50 (Protein skinhead-1): > 100 µM (inactive)

COc1ccc(-c2cc(NC=O)c3ncc(-c4cc(OC)c(OC)c(OC)c4)n3c2)cc1
IC50 [12]: > 67.6 µM (inactive) | IC50 (cells [14]): > 67.6 µM (inactive)

CN(C)c1ccc(NC(=O)c2cccc(C(=O)Nc3ccc(N(C)C)cc3)n2)cc1
IC50 [18]: 3.33 µM (active) | IC50 [6]: 40 µM (inactive)
